Assay [1] has as its target Poly [ADP-ribose] polymerase 1 (Homo sapiens, UniProt P09874).
Assay [2] has as its target T1, Protein mono-ADP-ribosyltransferase PARP3 (Homo sapiens) (UniProt Q9Y6F1).
T1 sequence (whole entry): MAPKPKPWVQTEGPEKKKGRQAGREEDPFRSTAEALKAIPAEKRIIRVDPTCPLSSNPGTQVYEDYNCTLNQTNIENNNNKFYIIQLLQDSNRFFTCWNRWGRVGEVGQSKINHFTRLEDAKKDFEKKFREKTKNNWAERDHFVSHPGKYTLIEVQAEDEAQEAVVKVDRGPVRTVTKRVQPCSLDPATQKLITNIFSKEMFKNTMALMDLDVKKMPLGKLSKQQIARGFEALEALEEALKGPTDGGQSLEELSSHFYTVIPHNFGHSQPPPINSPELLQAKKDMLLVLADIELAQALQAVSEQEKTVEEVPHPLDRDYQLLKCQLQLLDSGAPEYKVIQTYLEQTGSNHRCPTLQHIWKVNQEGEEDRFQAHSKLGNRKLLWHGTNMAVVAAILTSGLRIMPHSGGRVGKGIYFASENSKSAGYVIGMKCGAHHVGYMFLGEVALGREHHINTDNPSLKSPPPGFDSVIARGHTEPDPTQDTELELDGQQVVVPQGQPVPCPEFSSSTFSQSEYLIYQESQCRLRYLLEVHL

The subject of assay [3] is Poly [ADP-ribose] polymerase 14, ARTD8/PARP14 (Homo sapiens).
In assay [4] the target is Poly [ADP-ribose] polymerase 2 (Homo sapiens) (UniProt Q9UGN5).
The species entered for assay [5] is Homo sapiens. Briefly: Binding affinity to […] (unknown origin) assessed as change in melting temperature by thermal stabilization assay.

For 43 compounds, ΔTm results are on record in ChEMBL document CHEMBL3091384, “Chemical probes to study ADP-ribosylation: synthesis and biochemical evaluation of inhibitors of the human ADP-ribosyltransferase ARTD3/PARP3” (J Med Chem, 2013).

The structures appear in SMILES notation.

As usually defined, the ΔTm is the shift of the melting midpoint relative to a reference.

Poly [ADP-ribose] polymerase 2 (Homo sapiens), sequence (Q9UGN5 whole entry): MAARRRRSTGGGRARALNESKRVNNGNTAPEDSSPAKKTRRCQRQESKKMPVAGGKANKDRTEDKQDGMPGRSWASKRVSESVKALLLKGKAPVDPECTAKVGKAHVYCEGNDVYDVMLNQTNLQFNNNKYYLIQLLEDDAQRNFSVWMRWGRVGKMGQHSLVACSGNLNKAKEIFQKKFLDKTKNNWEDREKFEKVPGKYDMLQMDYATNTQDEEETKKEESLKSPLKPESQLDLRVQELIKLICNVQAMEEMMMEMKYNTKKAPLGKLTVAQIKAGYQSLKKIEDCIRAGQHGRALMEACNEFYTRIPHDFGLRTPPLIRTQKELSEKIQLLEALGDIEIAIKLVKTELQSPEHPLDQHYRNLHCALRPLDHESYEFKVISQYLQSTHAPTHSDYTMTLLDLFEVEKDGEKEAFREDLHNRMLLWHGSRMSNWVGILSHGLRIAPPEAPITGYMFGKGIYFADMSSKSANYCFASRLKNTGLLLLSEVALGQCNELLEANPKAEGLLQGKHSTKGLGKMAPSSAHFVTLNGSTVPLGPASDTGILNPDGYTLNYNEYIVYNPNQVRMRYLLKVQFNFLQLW
Poly [ADP-ribose] polymerase 1, sequence (P09874 whole entry): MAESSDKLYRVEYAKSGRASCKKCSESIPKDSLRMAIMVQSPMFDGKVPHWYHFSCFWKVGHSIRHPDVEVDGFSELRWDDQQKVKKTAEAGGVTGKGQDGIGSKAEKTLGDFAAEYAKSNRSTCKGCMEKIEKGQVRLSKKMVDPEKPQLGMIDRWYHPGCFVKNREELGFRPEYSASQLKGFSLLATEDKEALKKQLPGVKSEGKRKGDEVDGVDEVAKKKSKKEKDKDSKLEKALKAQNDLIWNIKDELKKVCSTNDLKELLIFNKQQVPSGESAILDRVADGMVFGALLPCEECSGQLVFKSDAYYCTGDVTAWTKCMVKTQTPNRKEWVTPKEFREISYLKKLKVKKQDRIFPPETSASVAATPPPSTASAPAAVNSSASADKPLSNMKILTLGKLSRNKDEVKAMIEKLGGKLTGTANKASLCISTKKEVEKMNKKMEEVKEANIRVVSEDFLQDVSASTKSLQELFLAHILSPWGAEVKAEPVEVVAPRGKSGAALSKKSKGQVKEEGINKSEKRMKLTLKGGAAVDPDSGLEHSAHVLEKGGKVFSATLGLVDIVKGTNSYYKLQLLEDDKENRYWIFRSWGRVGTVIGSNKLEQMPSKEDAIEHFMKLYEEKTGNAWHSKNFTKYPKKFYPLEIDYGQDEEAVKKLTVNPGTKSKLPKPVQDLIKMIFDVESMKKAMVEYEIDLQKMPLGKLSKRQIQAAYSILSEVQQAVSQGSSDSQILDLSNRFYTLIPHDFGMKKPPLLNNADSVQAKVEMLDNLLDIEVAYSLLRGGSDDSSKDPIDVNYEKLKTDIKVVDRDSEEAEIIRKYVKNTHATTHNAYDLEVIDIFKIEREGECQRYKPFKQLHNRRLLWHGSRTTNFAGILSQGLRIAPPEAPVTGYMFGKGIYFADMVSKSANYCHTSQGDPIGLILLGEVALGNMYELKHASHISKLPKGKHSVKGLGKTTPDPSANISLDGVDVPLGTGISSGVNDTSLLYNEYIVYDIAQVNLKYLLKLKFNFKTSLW

On to `CC(NC(=O)CCc1nc2ccccc2c(=O)[nH]1)c1ccncc1` (racemic), for which the shift in melting temperature (ΔTm) in assay [1] came out at 2.68 °C; in assay [2], 5.02 °C; in assay [3], 0 °C; in assay [4], 1.82 °C; in assay [5], 0.3 °C.
On the same counts, the results for `O=C(CCc1nc2ccccc2c(=O)[nH]1)NCc1ccccc1O` are 2.79 °C, 6.31 °C, -0.27 °C, 1.3 °C and 0.7 °C.
The corresponding values for `CON(C)C(=O)[C@H](Cc1ccccc1)NC(=O)CCc1nc2ccccc2c(=O)[nH]1` are 1.37 °C, 5.94 °C, 0.32 °C, 0.33 °C and 0.11 °C.
With `C[C@@H](NC(=O)Cc1nc2ccccc2c(=O)[nH]1)c1ccccc1`, the ΔTm is 0.37 °C in assay [1]; 0.63 °C in assay [2]; -0.04 °C in assay [3]; -0.25 °C in assay [4]; 0.05 °C in assay [5].
For `CC(NC(=O)CCc1nc2ccccc2c(=O)[nH]1)c1ccccn1` (racemic), the ΔTm in assay [5] came out at 0 °C.
As to `CC(C)(C)CC(NC(=O)CCc1nc2ccccc2c(=O)[nH]1)c1ccccc1` (racemic), the ΔTm in assay [1] is 0.9 °C; in assay [2], 5.96 °C; in assay [3], 0.16 °C; in assay [4], 0.74 °C; in assay [5] it was 0.44 °C.
For `COc1ccccc1CNC(=O)CCc1nc(O)c2ccccc2n1`, the thermal shift (ΔTm) is 1.45 °C in assay [1], 2.96 °C in assay [2], 1.14 °C in assay [4] and 0.54 °C in assay [5].
Regarding `O=C(CCc1nc2ccccc2c(=O)[nH]1)N1CCc2ccccc2C1`, the shift in melting temperature (ΔTm) in assay [1] was 1.15 °C; in assay [2], 4.73 °C; in assay [3], -0.07 °C; in assay [4] it was -0.17 °C; in assay [5] it was 0.14 °C.
On the same counts, the results for `O=C(CCc1nc2ccccc2c(=O)[nH]1)NCc1ccccc1` are 2.16 °C, 2.63 °C, -0.28 °C, 1.77 °C and 0.32 °C.
For `CCC(=O)[C@H](Cc1ccccc1)NC(=O)CCc1nc2ccccc2c(=O)[nH]1`, the ΔTm in assay [1] came out at 1.93 °C; in assay [2], 5.71 °C; in assay [3], 0.13 °C; in assay [4], 0.98 °C; in assay [5], 0.07 °C.
Turning to `C[C@H](NC(=O)CCc1nc2ccccc2c(=O)[nH]1)c1cccc(Cl)c1`, the thermal shift (ΔTm) was 0.26 °C in assay [1]; 0.2 °C in assay [2]; -0.1 °C in assay [3]; -0.48 °C in assay [4]; 0.29 °C in assay [5].
As to `O=C(CCCc1nc2ccccc2c(=O)[nH]1)N[C@@H]1CCc2ccccc21`, the shift in melting temperature (ΔTm) in assay [1] came to 1.52 °C; in assay [2], 3.46 °C; in assay [3] it was 0.13 °C; in assay [4], 2.29 °C; in assay [5], 1.2 °C.
On the same counts, the results for `O=C(CCCc1nc2ccccc2c(=O)[nH]1)N[C@H](CO)c1ccccc1` are 2.9 °C, 3.22 °C, 0.53 °C, 1.84 °C and 1.05 °C.
On to `C[C@H](NC(=O)NCc1nc2ccccc2c(=O)[nH]1)c1ccccc1`, for which the shift in melting temperature (ΔTm) in assay [1] is 0.88 °C; in assay [2], 4.95 °C; in assay [3], -0.77 °C; in assay [4], 0.33 °C; in assay [5] it was 0.39 °C.
Consider `COC(=O)[C@H](Cc1ccccc1)NC(=O)CCc1nc2ccccc2c(=O)[nH]1`, for which the ΔTm in assay [5] came to 0.5 °C.
The same measure, in the same setting: to `C[C@@H](NC(=O)CCc1nc2ccccc2c(=O)[nH]1)c1ccccc1` belongs 0.35 °C.
Regarding `Cc1ccc(C)c(C(C)NC(=O)CCc2nc3ccccc3c(=O)[nH]2)c1` (racemic), the ΔTm in assay [1] was 2 °C; in assay [2], 3.07 °C; in assay [3] it was 0.57 °C; in assay [4], 0.87 °C; in assay [5] it was 0.44 °C.
For `O=C(CCc1nc(O)c2ccccc2n1)NCc1ccccn1`, the thermal shift (ΔTm) worked out at 1.93 °C in assay [1], 4.83 °C in assay [2], 1.48 °C in assay [4] and 0.15 °C in assay [5].
Consider `C[C@H](NC(=O)CCCc1nc2ccccc2c(=O)[nH]1)c1ccccc1`, for which the ΔTm in assay [1] was 1.51 °C; in assay [2] it was 4.58 °C; in assay [3], -0.21 °C; in assay [4] it was 0.37 °C; in assay [5] it was 0.52 °C.
As to `O=C(CCc1nc2ccccc2c(=O)[nH]1)N[C@@H](Cc1ccccc1)C(=O)O`, the thermal shift (ΔTm) in assay [1] is 0.24 °C; in assay [2], 1.36 °C; in assay [3] it was -0.37 °C; in assay [4], -0.32 °C; in assay [5] it was 0.22 °C.
On the same counts, the results for `O=C(/C=C/c1nc2ccccc2c(=O)[nH]1)N[C@H](CO)Cc1ccccc1` are 0.41 °C, 6.25 °C, -0.7 °C, -0.17 °C and 0.08 °C.
Turning to `O=C(CCc1nc2ccccc2c(=O)[nH]1)NC1CCCc2ccccc21` (stereo unspecified), the ΔTm in assay [1] worked out at 2.44 °C; in assay [2], 2.28 °C; in assay [3] it was 0.24 °C; in assay [4], 1.11 °C; in assay [5], 1.83 °C.
`C[C@H](NC(=O)CCc1nc2ccccc2c(=O)[nH]1)c1ccccc1`: in assay [5], the ΔTm came to 0.13 °C.
On the same count and under the same terms, the result for `C[C@@H](CO)NC(=O)CCc1nc2ccccc2c(=O)[nH]1` reads 0.56 °C.
As for `C[C@@H](NC(=O)CCc1nc2cc(Cl)ccc2c(=O)[nH]1)c1ccccc1`, the ΔTm in assay [1] stood at 0.92 °C; in assay [2], 0.16 °C; in assay [3], 0.05 °C; in assay [4], 1.28 °C; in assay [5], 0.43 °C.
Turning to `O=C(CCc1nc2ccccc2c(=O)[nH]1)NC(c1ccccc1)c1ccccc1`, the ΔTm in assay [1] worked out at 0.2 °C; in assay [2], 0.2 °C; in assay [3] it was 0.45 °C; in assay [4], 0.3 °C; in assay [5] it was 0.22 °C.
Regarding `O=C(CCc1nc2ccccc2c(=O)[nH]1)NCc1ccc(OC(F)F)cc1`, the ΔTm amounted to 3.39 °C in assay [1]; 0.78 °C in assay [2]; 0.31 °C in assay [3]; 1.35 °C in assay [4]; 0.96 °C in assay [5].
`O=C(CCc1nc2ccccc2c(=O)[nH]1)NCCc1ccccc1`: the thermal shift (ΔTm) was 2.83 °C in assay [1]; 6.23 °C in assay [2]; 0.2 °C in assay [3]; 1.57 °C in assay [4]; 0.49 °C in assay [5].
As for `O=C(CCc1nc2ccccc2c(=O)[nH]1)NCc1ccccc1Cl`, the thermal shift (ΔTm) is 1.85 °C in assay [1]; 5.39 °C in assay [2]; 0.26 °C in assay [3]; 1.64 °C in assay [4]; 0.48 °C in assay [5].
In the case of `CC(NC(=O)CCc1nc2ccccc2c(=O)[nH]1)c1ccc(S(N)(=O)=O)cc1` (racemic), the ΔTm in assay [5] came out at 1.94 °C.
As to `C[C@H](NC(=O)/C=C/c1nc2ccccc2c(=O)[nH]1)c1ccccc1`, the ΔTm in assay [1] is 1.22 °C; in assay [2] it was 0.22 °C; in assay [3], -0.07 °C; in assay [4], -0.67 °C; in assay [5], 0.42 °C.
Consider `NC(=O)[C@H](Cc1ccccc1)NC(=O)CCc1nc2ccccc2c(=O)[nH]1`, for which the ΔTm in assay [5] stood at 1.08 °C.
With `O=C(CCc1nc2ccccc2c(=O)[nH]1)N[C@H](CO)c1ccccc1`, the shift in melting temperature (ΔTm) was 2.83 °C in assay [1]; 3.57 °C in assay [2]; 0.38 °C in assay [3]; 1.64 °C in assay [4]; 0.82 °C in assay [5].
Regarding `O=C(CCc1nc2ccccc2c(=O)[nH]1)N[C@H](CO)Cc1ccccc1`, in assay [5], the thermal shift (ΔTm) is 0.6 °C.
Regarding `O=C(CCCc1nc2ccccc2c(=O)[nH]1)NC(c1ccccc1)c1ccccc1`, the ΔTm in assay [1] was found to be 0.44 °C; in assay [2], 0.09 °C; in assay [3], 0.02 °C; in assay [4], 0.53 °C; in assay [5], 0.41 °C.
On to `Cc1ccc([C@H](C)NC(=O)CCc2nc3ccccc3c(=O)[nH]2)cc1C`, for which the ΔTm in assay [1] is 0.22 °C; in assay [2] it was 0.74 °C; in assay [3] it was -0.22 °C; in assay [4] it was -0.47 °C; in assay [5], 0.22 °C.
`O=C(CCc1nc2cc(Cl)ccc2c(=O)[nH]1)N[C@H](CO)c1ccccc1`: the ΔTm in assay [1] is 0.76 °C; in assay [2], 0.5 °C; in assay [3] it was -0.25 °C; in assay [4], 0.98 °C; in assay [5], 0.36 °C.
As to `O=C(CCc1nc2ccccc2c(=O)[nH]1)NCc1ccc(F)cc1`, the ΔTm in assay [1] was 3.11 °C; in assay [2], 4.2 °C; in assay [3], 0.69 °C; in assay [4], 1.37 °C; in assay [5], 0.69 °C.
On to `CC[C@H](NC(=O)CCc1nc2ccccc2c(=O)[nH]1)c1ccccc1`, for which the ΔTm in assay [5] worked out at 0.33 °C.
Still for that read-out and setting: the result for `C[C@H](NC(=O)CCc1nc2ccccc2c(=O)[nH]1)c1ccccn1` reads 0.13 °C.
`C[C@@H](NC(=O)CCc1nc2ccccc2c(=O)[nH]1)c1ccccn1`: the ΔTm in assay [5] stood at 0.12 °C.
Turning to `CC(NC(=O)CCc1nc2ccccc2c(=O)[nH]1)c1ccc(-n2ccnc2)cc1` (racemic), the ΔTm in assay [5] came out at 0.64 °C.
Still for that read-out and setting: the result for `CC[C@@H](CO)NC(=O)CCc1nc2ccccc2c(=O)[nH]1` reads 0.35 °C.
